Laboratory results as given in US7897389B2, “Direct differentiation method for making cardiomyocytes from human embryonic stem cells” (Geron Corporation, priority 2008, dated 2011).

Tests used:
[1] = test system: hES-derived cardiomyocytes; assay: Chronotropic effects of cardioactive drugs on beating hES-derived cardiomyocytes; format: cell-based, human; details: for chronotropic effect on beating rate: FIG. 2 Panels B-E
Procedure: The function of hES-derived cardiomyocytes was tested by determining whether the cardiomyocytes respond appropriately to the chronotropic effects of cardioactive drugs.
When cells were treated with 10^−5 M diltiazem, 100% of the beating areas stopped contraction. […] Thus, the hES cell derived cells respond to cardioactive drugs in a manner appropriate for cells of the cardiomyocyte lineage.

[2] = test system: Embryoid bodies from the H1 or H9 line
Procedure: Embryoid bodies from the H1 or H9 line were treated at differentiation day 1-4, 4-6 or 6-8 with 5-aza-deoxy-cytidine, a cytosine analog that affects DNA methylation. Cells were harvested at day 15, and analyzed for cardiac MHC by real-time RT-PCR.
Other reagents examined for an ability to induce cardiomyocyte differentiation included dimethyl sulfoxide (DMSO) and all-trans retinoic acid (RA).

## COc1ccc([C@@H]2Sc3ccccc3N(CCN(C)C)C(=O)[C@@H]2OC(C)=O)cc1 [diltiazem]
[1]; FIG. 2 Panel A, concentration-dependent
  beating rate: inhibited

## CNC[C@H](O)c1cccc(O)c1 [phenylephrine]
[1]
  chronotropic effect on beating rate: positive chronotropic effects

## C[S+](C)[O-] [DMSO, dimethyl sulfoxide]
[2]; 0.5% from days 0-4
  beating areas vs non-treated cultures: fewer beating areas
[2]; 0.8% or 1%
  beating cells: absent
[2]; DMSO treatment
  α-MHC expression compared with untreated cultures: significant reduction

## CC1=C(/C=C/C(C)=C/C=C/C(C)=C/C(=O)O)C(C)(C)CCC1 [RA, all-trans retinoic acid]
[2]
  toxicity to the cells: toxic
[2]; 10^−9 to 10^−5 M, days 4-8, 8-15, or 4-15
  beating cells compared with untreated cultures: no increase in beating cells

## Nc1ncn([C@H]2C[C@H](O)[C@@H](CO)O2)c(=O)n1 [5-aza-deoxy-cytidine]
[2]; 1 to 10 μM at day 6-8
  proportion of beating areas in the culture: increased
[2]; 1 to 10 μM at day 6-8, harvested day 15, real-time RT-PCR
  expression of cardiac α-MHC: significantly increased

## CC(C)NCC(O)c1ccc(O)c(O)c1 (stereo not shown) [isoprenaline]
[1]
  chronotropic effect on beating rate: positive chronotropic effects
